Experimental data from US7498406B2, “Substantially cell membrane impermeable compound and use thereof” (priority 1999, dated 2009).
“Also recorded” adds a separate entry of the source.

Experiments:
[1] = test system: chick CAM; assay: Chick chorioallantoic membrane (CAM) angiogenesis; assay type: in vivo; details: for inhibition of CAM angiogenesis (avascular zones): 5, 10 or 50 μg per pellet, 48 hr; for adverse effect on the wellbeing of the chick embryo: up to 50 μg per pellet
Method: FIG. 22. Inhibition of CAM angiogenesis by GSAO. Fertilised 3 day-old white Leghorn eggs were cracked, the embryos placed in petri dishes and incubated for 3 days. Methylcellulose discs containing 5, 10 or 50 μg of either GSAA or GSAO were then applied to the CAM of individual embryos and incubated for 48 hr. The CAMs were scored for no obvious effect or inhibition of angiogenesis as defined by avascular zones. Photographs of CAM's after incubation with discs containing 10 μg of either GSAA (top) or GSAO (bottom) is shown in the left hand panel. The dotted circle indicates the placement of the disc.
The chick CAM assay has been used for the detection and analysis of angiogenesis inhibition (Nguyen et al., 1994). Fertilised 3 day-old white Leghorn eggs (Spafas, Norwich, Conn.) were cracked, the embryos with intact yolks placed in 20×100 mm petri dishes and incubated for 3 days at 37° C. and 3% CO2 (Folkman, 1995). Methylcellulose (Fisher Scientific, Fair Lawn, N.J.) discs containing 5, 10 or 50 μg of either GSAA or GSAO were then applied to the CAM of individual embryos and incubated for 48 hr at 37° C. and 3% CO2. The discs were made by desiccation of GSAA or GSAO in 10 μl of 0.45% methycellulose on teflon rods. The CAMs were observed using a stereomicroscope and scored for no obvious effect or inhibition of CAM angiogenesis as defined by avascular zones. On some occasions CAM blood vessels were injected with India ink and photographed.

[2] = test system: Lewis lung tumours; assay: Tumour growth in mice, subcutaneous administration; assay type: in vivo, C57Bl6/J mice; details: 10 mg per kg per day; for inhibition of the rate of Lewis lung tumour growth: subcutaneous
Method: FIG. 25. Inhibition of human fibrosarcoma and murine Lewis lung tumour growth following systemic administration of GSAO. HT1080 or Lewis lung tumours were established in the proximal midline of female 7 to 9 week old SCID or C57Bl6/J mice, respectively. When the tumours were ˜0.1 cm^3 in volume the mice were randomised into two groups (n=5) and treated with either GSAA or GSAO at a dose of 10 mg per kg per day in 0.2 mL of PBS containing 100 mM glycine. The compounds were administered subcutaneously at a site distant from the tumour. Tumour volume and animal weight was measured every 3 days. The GSAO/GSAA HT1080 tumour volume ratio at day 17 of treatment was 0.29 (part A). The GSAO/GSAA Lewis lung tumour volume ratio at day 12 of treatment was 0.29 (part B). The data points and errors represent the mean and SE of the tumour volumes.
Female 7 to 9 week old SCID or C57Bl6/J mice were used (Massachusetts General Hospital, Boston, Mass.). Mice were held in groups of 3 to 5 at a 12 hour day and night cycle and were fed with animal chow and water ad libidum. SCID mice were anaesthetised by inhalation of isoflurane, the dorsal skin shaved and cleaned with ethanol, and a suspension of 2.5×10^6 BxPC-3 or HT1080 cells in 0.2 mL of DMEM was injected subcutaneously in the proximal midline. C57Bl6/J mice with Lewis lung carcinomas of 0.6-1.2 cm^3 volumes were sacrificed and the skin overlying the tumour was cleaned with betadine and ethanol. Tumour tissue was excised under aseptic conditions and a suspension of tumour cells in 0.9% saline was made by passage of tumour tissue through a sieve and a series of sequentially smaller 22- to 30-gauge hypodermic needles. C57Bl6/J mice were anaesthetised and prepared as for SCID mice and a suspension of Lewis lung carcinoma cells in 0.2 mL of saline was injected subcutaneously in the proximal midline. […] The tumours were measured in two diameters and tumour volume was calculated using the relationship, tumour volume=a×b^2×0.52, where a is the longest and b the shortest diameters in cm. […] Tumour volume and animal weight was measured every 3 days. […]

[3] = test system: BxPC-3 tumours; assay: Tumour growth, continuous intraperitoneal administration by micro-osmotic pumps; assay type: in vivo, SCID mice; details: 10 mg per kg per day
Method: FIG. 27. Inhibition of human pancreatic carcinoma tumour growth by continuous intraperitoneal administration of GSAO. BxPC-3 tumours were established in the proximal midline of female 7 to 9 week old SCID mice. Mice bearing ˜0.1 g tumours were implanted with 14 day alzet model 1002 micro-osmotic pumps (ALZA Corporation, Palo Alto, Calif.) in the peritoneal cavity. The pumps contained 45 mg per mL GSAA or GSAO and delivered 10 mg per kg per day. The pumps were replaced after 14 days. Pump duration is indicated by the shaded bar. Tumour volume and animal weight was measured every 3 days.
SCID mice bearing subcutaneous human BxPC-3-pancreatic carcinoma tumours were implanted with 14 day micro-osmotic pumps in the peritoneal cavity. The pumps delivered 10 mg per kg per day GSAA or GSAO and were replaced after 14 days with fresh pumps. The rate of growth of the BxPC-3 tumours was inhibited in the mice receiving GSAO (FIG. 27). […] When the second pump was exhausted one of the halted tumours began to grow at about the same rate as the GSAA-treated tumour while the other tumour had resolved completely.

Structure (SMILES)	inhibition of CAM angiogenesis (avascular zones) [1]	adverse effect on the wellbeing of the chick embryo [1]	inhibition of the rate of Lewis lung tumour growth [2]	rate of BxPC-3 tumour growth [3]	GSAO/GSAA Lewis lung tumour volume ratio ([2]; day 12 of treatment)	slowing of tumour growth in one mouse [3] [%]
N[C@@H](CCC(=O)N[C@@H](CSCC(=O)Nc1ccc([As](=O)(O)O)cc1)C(=O)NCC(=O)O)C(=O)O [GSAA, 4-(N-(S-glutathionylacetyl)amino)phenylarsonic acid, reference compound]	did not inhibit CAM angiogenesis; also recorded: no effects on CAM angiogenesis	Neither GSAA nor GSAO had any apparent adverse effect	no effect	no significant effect		
NC(CCC(=O)NC(CSCC(=O)Nc1ccc([As]=O)cc1)C(=O)NCC(=O)O)C(=O)O (stereo not shown) [GSAO, 4-(N-(S-glutathionylacetyl)amino)-phenylarsenoxide]	inhibited angiogenesis in the CAM in a concentration-dependent manner	Neither GSAA nor GSAO had any apparent adverse effect	~70%	halted completely in two other mice	0.29	50
